Target: Monoacylglycerol Lipase (MAGL) (Homo sapiens (Human), UniProt Q99685)
Assay: MAGL inhibition potency (IC50) assay with 4NPA substrate
Type: biochemical
Details: Method 1: Reaction Biology MAGL enzyme, 6 nM; read-out: MAGL Potency (Detection Method)
Text: The potency of certain compounds for inhibiting MAGL were obtained using the following assays. The monoacylglycerol lipase inhibitor screening assay kit from Cayman Chemical was used to measure the MAGL potency for the compounds in Table 6 and Table 7. Cayman's Monoacylglycerol Lipase Inhibitor Screening Assay provides a method for screening human MAGL inhibitors. MAGL hydrolyzes 4-nitrophenylacetate resulting in a yellow product, 4-nitrophenol, with an absorbance of 405-412 nm. MAGL Inhibition was measured by the following assay. Monoacylglycerol Lipase (MAGL) inhibition was measured using recombinant MAGL enzyme (aa 2-303 RBC, internal preparation) and the substrate 4-Nitrophenyl acetate (4NPA) (Sigma-Aldrich, N8130). Hydrolysis of the substrate in the presence of the enzyme was measured by absorbance at 405 nm. 10 μL of assay buffer (10 mM Tris pH 7.5, 1 mM EDTA, 0.9% DMSO) was added to a black 384-well non-binding plate with clear bottom (Greiner, 781906) for each reaction. […] DMSO control wells were included for reference. A 10.8 nM (1.8×) MAGL mix in assay buffer was prepared, with 25 μL added to each reaction well, for a final assay concentration of 6 nM. No enzyme wells received 25 μL of buffer. Plate was incubated at room temperature for 30 minutes. 35 mM solution of 4NPA in methanol was prepared daily. A 4.5×4NPA substrate solution was prepared in assay buffer and 10 μL was added to each reaction well, for a final assay concentration of 0.25 mM. Plate was spun for 1 minute at 1000 rpm before measuring absorbance using a CLARIOstar plate reader (BMG Labtech). A kinetic reading at 405 nm was done every minute for 30 minutes. Data was analyzed using the linear slope of the reaction progress curve and the average of the no-enzyme wells (background) was subtracted from the data. The background-subtracted slope data was converted to % activity using the average of wells with enzyme and DMSO vehicle. IC50s were calculated using GraphPad software (Sigmoidal dose response, variable slope equation). […] Table 8 provides potency measurements of MAGL inhibition measured using the Potency Assay of Example 22 above, with the following modifications described in Table C. [table]

Sequence of Monoacylglycerol Lipase (MAGL) (Q99685 2-303): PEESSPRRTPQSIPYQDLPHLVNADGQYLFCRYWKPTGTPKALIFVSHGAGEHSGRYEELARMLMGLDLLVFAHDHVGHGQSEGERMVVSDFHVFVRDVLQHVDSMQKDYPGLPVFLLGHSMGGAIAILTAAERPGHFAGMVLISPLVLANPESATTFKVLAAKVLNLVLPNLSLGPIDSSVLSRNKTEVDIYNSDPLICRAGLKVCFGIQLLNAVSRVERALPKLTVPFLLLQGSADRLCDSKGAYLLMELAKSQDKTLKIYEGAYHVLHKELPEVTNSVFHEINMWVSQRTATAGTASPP

Row | IC50 [nM] | Compound
1 | 50 to 150 | Cc1cc(C2CC3(C2)CN(C(=O)c2ccc(F)c(O)c2)C3)n(-c2ccccc2C)n1 [Compound 141, (4-fluoro-3-hydroxyphenyl)(6-(3-methyl-1-(o-tolyl)-1H-pyrazol-5-yl)-2-azaspiro[3.3]heptan-2-yl)methanone]

Same assay, conditions: Method 2: Cayman Chemical MAGL enzyme, 10 nM; read-out: MAGL Potency (Detection Method)

Row | IC50 [nM] | Compound
2 | 150 to 500 | Cc1cc(C2=CC3(C2)CN(C(=O)c2cc(O)ccc2F)C3)n(-c2ccccc2C)n1 [Compound 120, (2-fluoro-5-hydroxyphenyl)(6-(3-methyl-1-(o-tolyl)-1H-pyrazol-5-yl)-2-azaspiro[3.3]hept-5-en-2-yl)methanone]
3 | 50 to 150 | Cc1cc(C2CC3(C2)CN(C(=O)c2cc(O)ccc2Cl)C3)n(-c2ccccc2C)n1 [Compound 140, (2-chloro-5-hydroxyphenyl) (6-(3-methyl-1-(o-tolyl)-1H-pyrazol-5-yl)-2-azaspiro [3.3]heptan-2-yl) methanone]
4 | 150 to 500 | Cc1cc(C2CC3(C2)CN(C(=O)c2ccc(F)c(O)c2)C3)n(-c2ccccc2C)n1 [Compound 141, (4-fluoro-3-hydroxyphenyl)(6-(3-methyl-1-(o-tolyl)-1H-pyrazol-5-yl)-2-azaspiro[3.3]heptan-2-yl)methanone]
5 | 500 to 1000 | COc1cc(F)ccc1C(=O)N1CC2(CC(c3cc(C)nn3-c3ccccc3C)C2)C1 [Compound 142, (4-fluoro-2-methoxyphenyl)(6-(3-methyl-1-(o-tolyl)-1H-pyrazol-5-yl)-2-azaspiro[3.3]heptan-2-yl)methanone]
6 | 1000 to 5100 | COc1ccccc1C(=O)N1CC2(CC(c3cc(C)nn3-c3ccccc3C)C2)C1 [Compound 143, (2-methoxyphenyl)(6-(3-methyl-1-(o-tolyl)-1H-pyrazol-5-yl)-2-azaspiro[3.3]heptan-2-yl)methanone]
7 | 1000 to 5100 | CCOc1ccccc1C(=O)N1CC2(CC(c3cc(C)nn3-c3ccccc3C)C2)C1 [Compound 145, (2-ethoxyphenyl)(6-(3-methyl-1-(o-tolyl)-1H-pyrazol-5-yl)-2-azaspiro[3.3]heptan-2-yl)methanone]
8 | 150 to 500 | CCOc1cc(F)ccc1C(=O)N1CC2(CC(c3cc(C)nn3-c3ccccc3C)C2)C1 [Compound 146, (2-ethoxy-4-fluorophenyl){6-[3-methyl-1-(o-tolyl)-5-pyrazolyl]-2-aza-2-spiro[3.3]heptyl}methanone]
9 | 50 to 150 | Cc1cc(C2CC3(C2)CN(C(=O)c2ccc(F)cc2OC(C)C)C3)n(-c2ccccc2C)n1 [Compound 177, (4-fluoro-2-isopropoxyphenyl)(6-(3-methyl-1-(o-tolyl)-1H-pyrazol-5-yl)-2-azaspiro[3.3]heptan-2-yl)methanone]
10 | 1000 to 5100 | Cc1ccccc1NC(=O)C1CC2(C1)CN(C(=O)c1cc(O)ccc1F)C2 [Compound 186, N-o-tolyl-2-(2-fluoro-5-hydroxybenzoyl)-2-aza-6-spiro[3.3]heptanecarboxamide]
11 | 150 to 500 | CCOc1cc(F)ccc1C(=O)N1CC2(CC(C(=O)N(C)c3ccccc3C)C2)C1 [Compound 187, 2-(2-Ethoxy-4-fluorobenzoyl)-N-Methyl-N-(o-tolyl)-2-azaspiro [3.3] heptane-6-carboxamide]

Same assay, conditions: Method 2: Cayman Chemical MAGL enzyme, 10 nM; read-out: Potency (MAGL inhibition)

Row | IC50 [nM] | Compound
12 | > 10000 | Cc1cc(C2CC3(C2)CN(C(=N)c2cc(O)ccc2F)C3)n(-c2ccccc2C)n1 [Compound 144]
13 | > 10000 | COc1cc(F)ccc1CN1CC2(CC(c3cc(C)nn3-c3ccccc3C)C2)C1 [Compound 149]
14 | > 10000 | Cc1cc(C2CC3(C2)CN(C2CCOc4ccccc42)C3)n(-c2ccccc2C)n1 (stereo not shown) [Compound 152]
15 | > 10000 | Cc1cc(C2CC3(C2)CN([C@@H]2CCOc4ccccc42)C3)n(-c2ccccc2C)n1 [Compound 153]
16 | > 10000 | Cc1cc(C2CC3(C2)CN([C@H]2COc4ccccc42)C3)n(-c2ccccc2C)n1 [Compound 154]
17 | > 10000 | Cc1cc(C2CC3(C2)CN([C@@H]2COc4ccccc42)C3)n(-c2ccccc2C)n1 [Compound 155]
18 | > 10000 | Cc1cc(C2CC3(C2)CN(C(=O)c2ccoc2)C3)n(-c2ccccc2C)n1 [Compound 179]
19 | > 10000 | Cc1cc(C2CC3(C2)CN(C(=O)c2cccn2C)C3)n(-c2ccccc2C)n1 [Compound 181]
20 | > 10000 | Cc1cc(C2CC3(C2)CN(C(=O)c2ccn(C)c2)C3)n(-c2ccccc2C)n1 [Compound 182]
21 | > 10000 | Cc1cc(C2CC3(C2)CN(C(=O)c2ccc[nH]2)C3)n(-c2ccccc2C)n1 [Compound 183]
22 | > 10000 | Cc1cc(C2CC3(C2)CN(C(=O)c2cc[nH]c2)C3)n(-c2ccccc2C)n1 [Compound 184]
23 | > 10000 | CCOc1cc(F)ccc1C(=O)N1CC2(CC(C(=O)Nc3ccccc3C)C2)C1 [Compound 188]

Same assay, conditions: Method 3: Reaction Biology MAGL enzyme, 10 nM; read-out: MAGL Potency (Detection Method)

Row | IC50 [nM] | Compound
24 | < 50 | CCOc1cc(F)ccc1C(=O)N1CC2(CC(c3cc(C)nn3-c3ccccc3C)C2)C1 [Compound 146, (2-ethoxy-4-fluorophenyl){6-[3-methyl-1-(o-tolyl)-5-pyrazolyl]-2-aza-2-spiro[3.3]heptyl}methanone]

Same assay, conditions: Method 4: Cayman Chemical MAGL enzyme, 15 nM; read-out: MAGL Potency (Detection Method)

Row | IC50 [nM] | Compound
25 | 150 to 500 | CCOc1cc(F)ccc1C(=O)N1CC2(CC(C(=O)N(CC)c3ccccc3C)C2)C1 [Compound 203, N-ethyl-N-o-tolyl-2-(2-ethoxy-4-fluorobenzoyl)-2-aza-6-spiro[3.3]heptanecarboxamide]
26 | 500 to 1000 | CCOc1cc(F)ccc1C(=O)N1CC2(CC(C(=O)N(C)c3ccccc3C(C)C)C2)C1 [Compound 205, N-o-cumenyl-N-methyl-2-(2-ethoxy-4-fluorobenzoyl)-2-aza-6-spiro[3.3]heptanccarboxamide]
27 | 1000 to 5100 | CCOc1cc(F)ccc1C(=O)N1CC2(CC(C(=O)N(C)c3ccccc3Cl)C2)C1 [Compound 206, N-o-chlorophenyl-N-methyl-2-(2-ethoxy-4-fluorobenzoyl)-2-aza-6-spiro[3.3]heptanecarboxamide]

Same assay, conditions: Method 4: Cayman Chemical MAGL enzyme, 15 nM; read-out: Potency (MAGL inhibition)

Row | IC50 [nM] | Compound
28 | > 10000 | CCOc1cc(F)ccc1C(=O)N1CC2(CC(C(=O)N(C)c3cccnc3C)C2)C1 [Compound 198]

Same assay, conditions: Method 6: Reaction Biology MAGL enzyme, 6 nM; read-out: MAGL Potency (Detection Method)

Row | IC50 [nM] | Compound
29 | 50 to 150 | Cc1cnn(C2CC3(C2)CN(C(=O)c2cc(O)ccc2F)C3)c1-c1ccccc1C(F)(F)F (atropisomer, axis not shown; (M)) [Compound 410, 4-fluoro-3-{6-[(4M)-4-methyl-5-[2-(trifluoromethyl)phenyl]-1H-pyrazol-1-yl]-2-azaspiro[3.3]heptane-2-carbonyl}phenol]

Same assay, conditions: Method 14: Reaction Biology MAGL enzyme, 6 nM; read-out: MAGL Potency (Detection Method)

Row | IC50 [nM] | Compound
30 | < 50 | Cc1cc(C2CC3(C2)CN(C(=O)c2cc(O)ccc2F)C3)n(-c2cc(F)ccc2C)n1 [Compound 365, (2-fluoro-5-hydroxyphenyl){6-[1-(5-fluoro-2-tolyl)-3-methyl-5-pyrazolyl]-2-aza-2-spiro[3.3]heptyl}methanone]
31 | < 50 | Cc1cc(C2CC3(C2)CN(C(=O)c2cc(O)ccc2F)C3)n(-c2ccccc2C(F)(F)F)n1 [Compound 366, (2-fluoro-5-hydroxyphenyl)(6-{3-methyl-1-[o-(trifluoromethyl)phenyl]-5-pyrazolyl}-2-aza-2-spiro[3.3]heptyl)methanone]
32 | 500 to 1000 | Cc1cc(C2CC3(C2)CN(C(=O)c2c(F)ccc(O)c2C)C3)n(-c2ccccc2C)n1 [Compound 370]
33 | 50 to 150 | Cc1cc(C2CC3(C2)CN(C(=O)c2cc(O)c(C)cc2F)C3)n(-c2ccccc2C)n1 [Compound 371, (2-fluoro-5-hydroxy-4-tolyl){6-[3-methyl-1-(o-tolyl)-5-pyrazolyl]-2-aza-2-spiro[3.3]heptyl}methanone]
34 | 150 to 500 | Cc1ccccc1-c1c(C)cnn1C1CC2(C1)CN(C(=O)c1cc(O)ccc1F)C2 [Compound 373, (2-fluoro-5-hydroxyphenyl){6-[4-methyl-5-(o-tolyl)-1-pyrazolyl]-2-aza-2-spiro[3.3]heptyl}methanone]

Same assay, conditions: Method 14: Reaction Biology MAGL enzyme, 6 nM; read-out: Potency (MAGL inhibition)

Row | IC50 [nM] | Compound
35 | > 10000 | Cc1cc(C2CC3(C2)CN(C(=O)c2cc4c(cc2F)CCO4)C3)n(-c2ccccc2C)n1 [Compound 368]

Same assay, conditions: Methods 1, 2, 3; read-out: MAGL Potency (Detection Method)

Row | IC50 [nM] | Compound
36 | < 50 | Cc1cc(C2CC3(C2)CN(C(=O)c2cc(O)c(F)cc2F)C3)n(-c2ccccc2C)n1 [Compound 126, (2,4-difluoro-5-hydroxyphenyl)(6-(3-methyl-1-(o-tolyl)-1H-pyrazol-5-yl)-2-azaspiro[3.3]heptan-2-yl)methanone]

Same assay, conditions: Methods 1, 2; read-out: MAGL Potency (Detection Method)

Row | IC50 [nM] | Compound
37 | < 50 | Cc1cc(C2CC3(C2)CN(C(=O)c2cc(O)ccc2C#N)C3)n(-c2ccccc2C)n1 [Compound 128, 4-hydroxy-2-({6-[3-methyl-1-(o-tolyl)-5-pyrazolyl]-2-aza-2-spiro[3.3]heptyl}carbonyl)benzonitrile]

Same assay, conditions: Methods 2, 3; read-out: MAGL Potency (Detection Method)

Row | IC50 [nM] | Compound
38 | 50 to 150 | Cc1ccccc1N(C)C(=O)C1CC2(C1)CN(C(=O)c1cc(O)ccc1F)C2 [Compound 185, 2-(2-Fluoro-5-hydroxybenzoyl)-N-Methyl-N-(o-tolyl)-2-azaspiro [3.3]heptane-6-carboxamide]
39 | 1000 to 5100 | CCOc1cc(F)ccc1C(=O)N1CC2(CC(C(=O)N(C)c3ccccc3C)C2)C1 [Compound 187, 2-(2-Ethoxy-4-fluorobenzoyl)-N-Methyl-N-(o-tolyl)-2-azaspiro [3.3] heptane-6-carboxamide]

Same assay, conditions: read-out: Potency (MAGL inhibition)

Row | IC50 [nM] | Compound
40 | > 10000 | Cc1cc(C2CC3(C2)CN(Cc2cc(O)ccc2F)C3)n(-c2ccccc2C)n1 [Compound 150]

— patent US20240308985A1 (Psy Therapeutics, Inc., priority 2021, published 2024)
